Marks after values point to notes of the source that are not given here. Blank lines part the entries; values can stand above or below the compound they belong to.
Experiments:
[1] = target: T1, microsomal fatty acid amide hydrolase (FAAH) (Homo sapiens, UniProt O00519); test: Lowest detection limits of microsomal FAAH toward colorimetric and fluorescent substrates; format: biochemical; details: for base line, Average: 0 min; for signal, Average: 10 min
T1 construct: made in house; host or cells: Trichoplusia ni High Five cells infected with recombinant baculovirus Ac-hFAAH; microsomal fraction
T1 sequence (O00519 1-579): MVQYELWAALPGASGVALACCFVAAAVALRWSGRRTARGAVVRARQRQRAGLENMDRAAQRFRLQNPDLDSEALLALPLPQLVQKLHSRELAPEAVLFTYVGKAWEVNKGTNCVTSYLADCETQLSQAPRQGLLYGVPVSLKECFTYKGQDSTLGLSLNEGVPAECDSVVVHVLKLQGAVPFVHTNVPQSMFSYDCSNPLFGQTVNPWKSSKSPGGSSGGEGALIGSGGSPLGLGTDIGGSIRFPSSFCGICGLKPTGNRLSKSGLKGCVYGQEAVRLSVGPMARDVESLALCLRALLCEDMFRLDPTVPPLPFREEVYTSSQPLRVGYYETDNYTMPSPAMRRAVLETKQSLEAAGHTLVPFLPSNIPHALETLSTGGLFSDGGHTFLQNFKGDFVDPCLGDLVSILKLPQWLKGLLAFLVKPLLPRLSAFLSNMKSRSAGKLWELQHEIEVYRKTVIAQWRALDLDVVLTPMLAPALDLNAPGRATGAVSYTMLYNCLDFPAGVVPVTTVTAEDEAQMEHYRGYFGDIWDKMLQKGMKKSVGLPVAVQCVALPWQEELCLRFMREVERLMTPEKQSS
Procedure: (§1) Preparation of recombinant human FAAH. Transgenic expression of the human FAAH in a baculovirus system was performed by following the method described in Nishi et al., Arch. Biochem. Biophys., 445:115-123 (2006). The cDNA encoding human FAAH (GenBank Accession No. NM_001441) was amplified by PCR using a human liver cDNA library (Invitrogen; Carlsbad, Calif.) as a template. The primer pair was 5′-[…]-3′ and 5′-[…]-3′. BglII and EcoRI endonuclease sites (underlined) were incorporated just upstream of the start codon and downstream of the stop codon of the coding sequence of FAAH, respectively. The PCR products were cloned into a pCR2.1 vector (Invitrogen) and the nucleotide sequence was verified by DNA sequencing. The cDNA fragments were then excised and directionally ligated to the BglII and EcoRI sites of the baculovirus transfer vector pAcUW21 (Lopez-Ferber et al., Baculovirus transfer vectors, in “Baculovirus Expression Protocols,” Richardson (Ed.), pp 25-63, Humana Press, Totowa, N.J., 1995). Recombinant baculoviruses harboring the human FAAH gene, Ac-hFAAH, were generated by co-transfection of Spodoptera frugiperda-derived Sf21 cells with the recombinant transfer vector plasmid and Bsu36I-cleaved BacPAK6 viral DNA (Clontech Laboratories; Mountain View, Calif.) as described in O'Reilly et al., Baculovirus Expression Vectors: A Laboratory Manual, Oxford University Press, New York, 1992. Trichoplusia ni-derived High Five cells (1×10^6 cells/ml) were inoculated with a high titer of Ac-hFAAH. At 72 hours post-infection, the infected cells were harvested by centrifugation at 2,000×g for 20 min at 4° C. and suspended in 50 mM Tris-HCl (pH 8.0) containing 150 mM NaCl, 1 mM EDTA, 1 μM pepstatin, 100 μM leupeptin, and 0.1 mg/ml aprotinin. The cell suspension was then homogenized using a Polytron homogenizer and centrifuged at 10,000×g for 20 min at 4° C. The microsomal fraction was collected by ultracentrifugation of the supernatant at 100,000×g for 60 min at 4° C. The pellet was resuspended in 20 mM Tris-HCl (pH 8.0) containing 10% (w/v) glycerol and 1% (w/v) Triton-X 100 and stored at −80° C. until use.
(§2) Comparison of the lowest detection limits of protein concentration of FAAH toward colorimetric and fluorescent substrates. In general, all assays were performed in 96-well styrene flat-bottom microtiter plates with a Spectra Max M2 spectrophotometer at 37° C. for […]. The total volume of each well was 201 μl consisting of 0.1 M sodium phosphate buffer (pH 8.0) (190 μl) containing 1% glycerol and 0.1% Triton-X 100, stock or diluted protein solution (10 μl), and the substrate solution (1 μl) in ethanol (final concentration 200 μM for 10, 11, 13 or 14) or in DMSO (final concentration 25 μM for 12, 15, or 16; 50 μM for 17). The lowest detection limits of microsomal fatty acid amide hydrolase (FAAH) by substrates were determined by the fact that the signal at 10 min after kinetic measurements are equal to or over three times the noise or basal line at 0 min. Colorimetric substrate (16) assays were performed in clear 96-well microtititer plates using an absorbance wavelength at 382 nm. The fluorescent substrates containing 5-amino-2-methoxypyridine (e.g., 10, 13) were measured at an excitation wavelength (302 nm), emission wavelength (396 nm), and auto cutoff wavelength (325 nm). Similarly, the fluorescent substrates containing 5-amino-2-methoxy-6-methylpyridine (e.g., 11, 14, and 17) were measured at an excitation wavelength (304 nm), emission wavelength (392 nm), and an auto cutoff wavelength of 325 nm. In addition, an excitation wavelength (366 nm), emission wavelength (496 nm), and auto cutoff wavelength (495 nm) were used for the substrates (e.g., 12 and 15) containing 7-amino-4-trifluoromethyl coumarin.

[2] = system: amidases, microsomes from High Five cells; test: Specific activity, microsomes from High Five cells; details: pH 8.0, 37° C.; NM = not measurable at the same protein concentration as other substrates
Procedure: Preparation of recombinant human FAAH. Transgenic expression of the human FAAH in a baculovirus system was performed by following the method described in Nishi et al., Arch. […] The cDNA encoding human FAAH (GenBank Accession No. NM—001441) was amplified by PCR using a human liver cDNA library (Invitrogen; Carlsbad, Calif.) as a template. The primer pair was 5′-[sequence]-3′ and 5′-[sequence]-3′. BglII and EcoRI endonuclease sites (underlined) were incorporated just upstream of the start codon and downstream of the stop codon of the coding sequence of FAAH, respectively. The PCR products were cloned into a pCR2.1 vector (Invitrogen) and the nucleotide sequence was verified by DNA sequencing. The cDNA fragments were then excised and directionally ligated to the BglII and EcoRI sites of the baculovirus transfer vector pAcUW21 (Lopez-Ferber et al., Baculovirus transfer vectors, in “Baculovirus Expression Protocols,” Richardson (Ed.), pp 25-63, Humana Press, Totowa, N.J., 1995). Recombinant baculoviruses harboring the human FAAH gene, Ac-hFAAH, were generated by co-transfection of Spodoptera frugiperda-derived Sf21 cells with the recombinant transfer vector plasmid and Bsu36I-cleaved BacPAK6 viral DNA (Clontech Laboratories; Mountain View, Calif.) as described in O'Reilly et al., Baculovirus Expression Vectors: A Laboratory Manual, Oxford University Press, New York, 1992. Trichoplusia ni-derived High Five cells (1×10^6 cells/ml) were inoculated with a high titer of Ac-hFAAH. At 72 hours post-infection, the infected cells were harvested by centrifugation at 2,000×g for 20 min at 4° C. and suspended in 50 mM Tris-HCl (pH 8.0) containing 150 mM NaCl, 1 mM EDTA, 1 μM pepstatin, 100 μM leupeptin, and 0.1 mg/ml aprotinin. The cell suspension was then homogenized using a Polytron homogenizer and centrifuged at 10,000×g for 20 min at 4° C. […]
Comparison of the lowest detection limits of protein concentration of FAAH toward colorimetric and fluorescent substrates. […] The lowest detection limits of microsomal fatty acid amide hydrolase (FAAH) by substrates were determined by the fact that the signal at 10 min after kinetic measurements are equal to or over three times the noise or basal line at 0 min. Colorimetric substrate (16) assays were performed in clear 96-well microtititer plates using an absorbance wavelength at 382 nm. The fluorescent substrates containing 5-amino-2-methoxypyridine (e.g., 10, 13) were measured at an excitation wavelength (302 nm), emission wavelength (396 nm), and auto cutoff wavelength (325 nm). Similarly, the fluorescent substrates containing 5-amino-2-methoxy-6-methylpyridine (e.g., 11, 14, and 17) were measured at an excitation wavelength (304 nm), emission wavelength (392 nm), and an auto cutoff wavelength of 325 nm. […]

[3] = Molar extinction coefficient of fluorescent reporters; format: physicochemical; details: H2O containing 1% ethanol, 290 nm, 30° C., 10-50 μM
Procedure: Molar extinction coefficient. According to Beer's law, Aλ=ε*C*L, where Aλ is the absorbance at wavelength (λ nm); ε is called the molar extinction coefficient; L is the width of the sample cuvette; and C is the concentration of the solute. In this example, a series of concentrations falling between 10 and 50 μM (final concentration) for each fluorescent reporter was used for determination of the molar extinction coefficient. Assays were performed in a quartz cuvette (1 cm optical passage). 10 μl of a stock solution of a reporter in ethanol (1, 2, 3, 4, or 5 mM) was added to 990 μl H2O. The resulting mixture was degassed by sonication with ultrasonic cleaner Model 750 (VWR International; Wester, Pa.) for 10 seconds at a power level of 9. Measurements were performed with a Spectra Max M2 spectrophotometer (Molecular Devices; Sunnyvale, Calif.) at a wavelength of 290 nm. A slope (or extinction coefficient) was obtained by using an average absorbance of triplicate samples.

[4] = Maximal excitation and emission wavelengths; format: physicochemical; details: 50 μM in 0.1 M phosphate buffer, 30° C.; SD ±2 nm
Procedure: Maximal excitation and emission wavelengths. A stock solution in ethanol of each compound (10 μl, 5 mM) was added to 990 μl of sodium phosphate buffer (0.1 M, pH 8.0, final substrate concentration 50 μM) in a 1-cm quartz cuvette. The quartz cuvette was scanned from 200 to 500 nm for absorption spectra with a Spectra Max M2 spectrophotometer. Maximal excitation and emission wavelengths were obtained from scanning from 250 to 600 nm and 360 to 600 nm by a 2 nm interval at 30° C., respectively.

[5] = Fluorescence quantum yield; format: physicochemical; details: 10 μM, 1% ethanol in water, excitation 290 nm, standard 3-aminopyridine; SD under ±5%
Procedure: Quantum yield. The fluorescence quantum yield, φf, was calculated according to the following equation:
ØF=Østd*(I/Istd)*(ODstd/OD)*(n/nstd)^2,
wherein ØF is the quantum yield of the tested fluorescent reporter; Østd is the fluorescence quantum yield of the standard; I and Istd are the integrated emission intensities of the sample and the standard, respectively; OD and ODstd are the absorbance of the sample and standard, respectively, at the desired wavelength λex; and n and nstd are the indexes of refraction of the sample and standard solutions, respectively (Horspool and Song (Eds.), CRC Handbook of Organic Photochemistry I, pp 234-235, CRC Press, Boca Raton, Fla., 1995).
In this example, 3-aminopyridine in water at the maximal excitation wavelength of 290 nm was used as a standard (Østd=0.32, εmax=2800 M^−1 cm^−1) (see, e.g., Weisstuch et al., J. Phys. Chem., 72:1982-1987 (1968)). In order to minimize inner filter effects, the optical densities of samples at the excitation wavelength (λ=290 nm) were kept in the range of 0.095-0.13 (less than 0.150-0.165). The final concentration of each tested sample in a quartz cuvette was 10 μM with 1% ethanol in water, same as that for the standard. The integrated area of fluorescent intensity for the standard or the samples was based on the area between 360 and 500 nm. The difference of the index of refraction between the standard and the sample was neglected because (1) all measurements were performed in the same quartz cuvette and spectrofluorimeter; (2) the final concentrations of the sample and the standard were the same; and (3) the structures of the sample and standard were very similar, i.e., only one pyridine ring. The quantum yields presented in Table 1 were based on calculation of the average of OD and integrated fluorescent intensities of triplicates. The standard deviation for each quantum yield was less than ±5%.

[6] = Dependence of relative fluorescent intensity on pH values; format: physicochemical; details: pH 6.0 to 9.0, sodium phosphate or Tris/HCl buffer, 25 μM
Procedure: The dependence of relative fluorescent intensity on pH values. 5-amino-2-methoxypyridine (6) was used to determine whether protonization/de-protonization affects the relative fluorescent intensities of the reporters. A stock solution of (6) in ethanol (5 μl, 5 mM) was added to 995 μl 0.1 M sodium phosphate buffer (from pH 6.0 to pH 8.0) or 0.1 M Tris/HCl buffer (pH 9.0) in a quartz cuvette (final substrate concentration 25 μM). Relative fluorescent unit/intensity (RFU) for emission spectra was recorded by a 2 nm interval at room temperature using a fixed excitation wavelength (λ=302 nm). The RFU of each pH value was an average of triplicates and the standard deviation for each point was less than 1%. Similarly, the RFU of the excitation spectrum was recorded by a 2 nm interval at room temperature using a fixed emission wavelength (λ=396 nm) in 0.1 M phosphate buffer (pH 8.0).

[7] = target: T2, fatty acid amide hydrolase (FAAH) (Homo sapiens, UniProt O00519); test: Kinetic study of FAAH toward substrates; format: biochemical
T2 construct: made in house; host or cells: Trichoplusia ni High Five cells infected with recombinant baculovirus Ac-hFAAH; microsomal fraction
T2 sequence (O00519 1-579): T1 sequence (O00519 1-579)
Procedure: as §1
Kinetic study. The kinetic assays were also performed as described above for the sensitivity assay. Briefly, a total volume of 201 μl contained 0.1 M sodium phosphate buffer (pH 8.0) (190 μl) with 1% glycerol and 0.1% Triton-X 100, protein solution (10 μl), and substrate solution (1 μl). The protein content was 0.67 μg per well (201 μl). The concentration of substrate (13) in DMSO was 200, 100, 50, 25, 12.5, 6.25, 3.13, 1.56, or 0.78 μM. Similarly, the concentration of substrate (17) in DMSO was 100, 50, 25, 12.5, 6.25, 3.13, 1.56, 0.78, or 0.39 μM. Four replicates were applied for each concentration. Reported kinetic data (km and Vmax) were analyzed by the SigmaPlot Enzyme Kinetics software (2001) using the Michaelis-Menten equation for all concentrations.

[8] = target: T3, human FAAH, microsomes from FAAH cells (Homo sapiens, UniProt O00519); test: Specific activity, microsomes from FAAH cells; format: biochemical
T3 construct: made in house; host or cells: Trichoplusia ni High Five cells infected with recombinant baculovirus Ac-hFAAH; microsomal fraction
T3 sequence (O00519 1-579): T1 sequence (O00519 1-579)
Procedure: as §1, §2
Specific activity determination. The assays for specific activities were performed as described above for the sensitivity assay. […]

[9] = protein 0.11 (13), 0.67 (14), 100 (15), 0.5 (17) μg/well, 200 μM (13),(14), 25 μM (15), 50 μM (17)
[10] = FAAH sensitivity assay, Table 2
[11] = pH 8.0, 37° C., 0.67 μg protein per well, Michaelis-Menten
[12] = absorbance 382 nm, protein 100 μg/well, 25 μM

Structure (SMILES): COc1ccc(NC(C)=O)cn1 [Compound 10, N-(6-methoxypyridin-3-yl) acetamide]
Specific activity, Microsomes from High Five cells [2]: 56 ± 2 pmol/min/mg protein

Structure (SMILES): COc1ccc(N)cn1 [Compound 6, 5-amino-2-methoxypyridine]
εmax, molar extinction coefficient [3]: 2340 M⁻¹ cm⁻¹
Em, maximal emission wavelength [4]: 396 nm
Ex, maximal excitation wavelength [4]: 302 nm
ØF, fluorescence quantum yield [5]: 0.95
relative fluorescent intensity of excitation or emission as function of pH [6]: increased with an increase of pH value

Structure (SMILES): CCCCC/C=C\C/C=C\C/C=C\C/C=C\CCCC(=O)Nc1ccc(OC)nc1 [Compound 17]
base line, Average [1, 9]: 148 RFU
signal, Average [1, 9]: 559* RFU
Protein, lowest detection limit of microsomal FAAH (signal at 10 min ≥ three times base line) ([1]; pH 8): 0.5 μg/200 μ′
lowest detection limit of protein ([1]; signal at 10 min equal to three times base line): 2.5 μg protein/ml
Selectivity ratio ([7]; Vmax/Km of substrate over that of oleamide (5.5 × 10^−2)): 54.5
Km [7, 11]: 12.5 µM
Vmax [7, 11]: 36.7 nmol/min/mg
enhancement of activity, microsomes from FAAH-expressing cells compared with High Five cells [8]: 4180 times
Specific activity, Microsomes from FAAH cells ([8]; pH 8): 23.5 ± 0.7 nmol/min/mg protein
Specific activity, Microsomes from High Five cells [2]: 5.62 ± 0.67 pmol/min/mg protein

Continued, values first:

base line, Average [1, 9]: 132 RFU
signal, Average [1, 9]: 161 RFU
times less sensitive than substrate (13) [1, 10]: at least 900 times
times less sensitive than substrate (14) [1, 10]: ≥ 150 times
melting point: 136.6 to 137.1 °C
Structure (SMILES): CCCCCCCC(=O)Nc1ccc2c(C(F)(F)F)cc(=O)oc2c1 [Compound 15, N-(4-(trifluoromethyl)-2-oxo-2H-chromen-7-yl) octanamide]

base line, Average [1, 12]: 0.16 OD
signal, Average [1, 12]: 0.18 OD
melting point: 80.9 to 81.6 °C
Structure (SMILES): CCCCCCCC(=O)Nc1ccc([N+](=O)[O-])cc1 [Compound 16, N-(4-nitrophenyl) octanamide]

From patent US20100160391A1, “Substituted Aminopyridines as Fluorescent Reporters for Amide Hydrolases” (priority 2006, published 2010)
